Test results: ChEMBL document CHEMBL3507680, “University of Dundee, Gates Library screen for HepG2 cell viability”

Assay: Human HepG2 cell viability assay in 384 well format
Type: toxicity, cell-based
Design: dose 125 nL, time 70.5 hour; concentration not given beside the values
Conditions: HepG2 cells, read-out: Inhibition

SMILES	cytotoxicity at 70.5 h
Cc1cc(C(=O)N2CCCCC2C)ccc1NC(=O)N1CCOCC1 (stereo not drawn)	-6.59%
CC(Cn1cncn1)NC(=O)NCC(C)(C)Cc1ccccc1 (stereo not drawn)	-4.62%
COc1ccc(-c2ccnc3nc(N4CCCCC4)[nH]c(=O)c23)cc1	-9.32%
CC(c1ncc(C(C)(C)C)o1)N1CCN(Cc2ccc(Cl)s2)CC1 (stereo not drawn)	16.2%
O=C(Cc1ccc2c(c1)OCCO2)NC1CCCCC1	-1.15%
C[C@@H]1CN(C(=O)CCCn2nnc(-c3ccc(F)cc3)n2)C[C@]1(C)O	22.7%
Cc1cnn(CC2CN(Cc3cccc(OC(C)C)c3)CCO2)c1 (stereo not drawn)	-5.62%
O=C(NC1CCC1)[C@@H]1C[C@@H]2CCN(CCc3ccccc3)C[C@H]2O1	-8.97%
CCc1nc(CN(C(C)=O)C2CCN(CCc3ccccc3)C2)no1 (stereo not drawn)	-5%
CC(C)(C)C(O)CCNC(=O)c1ccc(F)cc1Cl (stereo not drawn)	-16.1%
CC(C)c1ccc(CCC(=O)N(C)C2CCN(C)C2=O)cc1 (stereo not drawn)	-1.43%
Cc1csc(C2CCCCN2C(=O)CCn2cncn2)n1 (stereo not drawn)	33.9%
CCn1ncc2c1CCCC2NCc1csc(C(C)C)n1 (stereo not drawn)	0.0472%
CCC1CN(CC(=O)NCCOC)CCO1 (stereo not drawn)	-4.46%
CN(C1CCN(c2ccccn2)CC1)S(=O)(=O)N1CCOCC1	-7.57%
CN(Cc1nnc(-c2ccco2)o1)C1CCCN(c2cccnn2)C1 (stereo not drawn)	36.8%
COc1cccc2c1OCC(C(=O)N1CCN(S(=O)(=O)N(C)C)CC1)C2 (stereo not drawn)	-2.76%
O=C1CCC2(CCOC2)CN1CCCOc1cccnc1 (stereo not drawn)	0.321%
Cc1ccc(C(C)(O)CNC(=O)c2scnc2C)o1 (stereo not drawn)	-3.68%
COC(=O)COn1c(OC)nc2ccccc2c1=O	-11.7%
Cc1ccc(CN(CCCn2ccnc2)Cc2cccs2)s1	18.6%
CCC1(CNC(=O)NC(c2nnc3n2CCC3)C(C)C)CCC1 (stereo not drawn)	35.2%
CN(C1CCCCC1)S(=O)(=O)NC1CCCN(c2ncccn2)C1 (stereo not drawn)	-8.05%

SMILES	cytotoxicity at 70.5 h
CCN(C(=O)NCCc1ccccc1Cl)C(C)CS(C)(=O)=O (stereo not drawn)	20.5%
CC1=C(C(=O)NCCc2n[nH]c3c2CCCC3)C(C)NC(=O)N1 (stereo not drawn)	14.6%
Cc1nnc(CN(Cc2ccc(Cl)c(Cl)c2)C(C)C)o1	-14%
c1ccc(-n2ncc(CN3CCCC3Cn3cccn3)n2)cc1 (stereo not drawn)	-15.5%
c1cc(CN2CCCC(c3noc(C4CC4)n3)C2)no1 (stereo not drawn)	3.46%
O=C(N1CCCC1)N1CCC2(CCCN(CCOc3ccccc3)C2)C1 (stereo not drawn)	26.5%
O=C1NC2(CCN(C(=O)Cc3ccsc3)CC2)CC1c1ccccc1 (stereo not drawn)	0.488%
CC(C)OCC(=O)N1CCCN(Cc2ccc(C#N)cc2)CC1	5.66%
CC(C)(C)S(=O)(=O)c1ccc(N2CCN(c3ccccn3)CC2)nn1	-17.1%
N#Cc1ccc(N2CCC3(CC2)CC(OCc2cccnc2)CO3)cc1 (stereo not drawn)	-1.15%
Cc1c(Cl)c(C(=O)N2CC[C@H](N3CCOCC3)[C@H](CCCO)C2)nn1C	3.03%
CN1CCN(C(=O)[C@@H]2C[C@@H]3CCN(c4cccc(F)c4)C[C@H]3O2)CC1	-11.9%
CN(C)C(=O)c1ccccc1NCCCOc1cccc(C#N)c1	13.1%
CN(C[C@@H]1CCC[C@@H]2CN(c3ncccn3)C[C@@H]21)C1CC1	-1.63%
CC1CCN(CC(=O)N(Cc2ccccc2)Cc2nccs2)C1=O (stereo not drawn)	-11.6%
COCCn1cncc1CN1CCC(C(C)=O)(c2ccccc2)CC1	-15.1%
CCc1cnc(C)nc1NC(CC)c1ncnn1CC (stereo not drawn)	-5.6%
Cc1csc(CCNc2ccc(C#N)cn2)n1	-11.4%
c1nc2n(c1CN1CCOCC1)CCN(C1CCOC1)CC2 (stereo not drawn)	7.7%
O=S(=O)(c1cccc(F)c1)N1CC[C@H]2[C@H]1CCN2c1ncccn1	1.7%
CC(=O)N1N=C(c2ccco2)OC1C(=O)N(CC(C)C)CC(C)C (stereo not drawn)	-1.96%
CC(c1ccc(F)cc1F)N1CCN(CCN2CCCC2=O)CC1 (stereo not drawn)	-4.44%
Cc1nc(CNCC2COCc3c(-c4ccoc4)nnn3C2)cs1 (stereo not drawn)	-6.23%

SMILES	cytotoxicity at 70.5 h
CC(C)CS(=O)(=O)Nc1ccc2c(c1)OCC(C)(C)C(=O)N2C	50.7%
COCc1ccccc1CNC(=O)CNc1ccccc1C(C)=O	2.64%
COCCNC(=O)c1cccnc1Sc1cc(OC)ccc1OC	11.2%
Cc1ncsc1CCN(C)Cc1cc2n(n1)CCN(Cc1ccco1)C2	-16.9%
COc1cc(F)c(NCc2nc3ccccc3n2C)cc1OC	-15.9%
CC(=O)NC1CCN(c2cc(C3CCNCC3)nc(C)n2)C1 (stereo not drawn)	-6.6%
O=C1CCCN1CCCN1CCCCC1Cn1cncn1 (stereo not drawn)	-5.51%
CNc1ncc(CN(C)CCN2CCCCC2)cn1	36.6%
CCc1ncc(C(=O)N2CCN(Cc3ncccc3C)CC2)cn1	-14.7%
CN(C)C(=O)Cc1ccc(NC(=O)NC2CCCCC2)cc1	-10.4%
N#CCCCOc1cccnc1NC(=O)CC1CCCCC1	39.8%
Cc1cnc2c(c1)N(C(=O)c1ccc(=O)n(C)c1)CCO2	-2.79%
CC(C)(CCS(C)(=O)=O)CNc1ccc2ccc(F)cc2n1	-2.27%
COc1ccc2cc(C3CN(C(=O)CCNC(C)=O)CCO3)ccc2c1 (stereo not drawn)	2.84%
CS(=O)(=O)N1C[C@@H]2CC[C@H](C1)N(Cc1ccsc1)C2	34.2%
Cc1ccc(N2CCCC(NCc3cscn3)C2)nn1 (stereo not drawn)	-11.8%
COCC(c1cccc(C(F)(F)F)c1)N(C)C(=O)c1cnccn1 (stereo not drawn)	-9.11%
Cc1nn(C)c(N(C)C)c1CNCc1nnc2n1CCCCC2	-6.41%
Cc1cnn(CC2CCCN2Cc2cc(=O)n3cc(C)ccc3n2)c1 (stereo not drawn)	-1.28%
Cn1cc(N2CCC3(CCCN(C(=O)c4ccnn4C)C3)C2=O)cn1 (stereo not drawn)	-4.7%
CN(Cc1nc(N)c2ccccc2n1)CC1CCCN1c1cccnn1 (stereo not drawn)	-16.6%
NC[C@H]1[C@H]2CN(Cc3ccccc3)C[C@@H]12	0.818%
CN(C)C(=O)N1CCC2(CC(=O)N(c3cccc(C#N)c3)C2)C1 (stereo not drawn)	-5.09%

SMILES	cytotoxicity at 70.5 h
CCOc1ccc(CN2CC[C@](C)(O)C(C)(C)C2)cn1	-1.38%
NC(=O)CN1CCN(C(=O)c2cc(Cl)cc3cccnc23)CC1	19.4%
Cc1n[nH]c(C)c1CCN(C)C(=O)C(c1cccnc1)N1CCOCC1 (stereo not drawn)	-4.73%
Cc1cncc(C(=O)N2Cc3ccccc3C3(CCN(C)CC3)C2)c1	-14.6%
Cn1nccc1C(=O)N1Cc2ccccc2OC2(CCOCC2)C1	1.33%
CCCOC(=O)N1CCn2nc(-c3nc4ccccc4n3C)cc2C1	-5.25%
CCOc1cc(Cl)ccc1CNC(=O)N1CCCC(CO)C1 (stereo not drawn)	-9.17%
O=c1cc(N2CCCCC2)cnn1CC(O)C(F)(F)F (stereo not drawn)	-8.52%
CCN(Cc1cccc(C(N)=O)c1)c1ccccc1	12.2%
Cc1nc(N2CCCC2)ncc1-c1cc(O)nc(N2CCCC2)n1	-11.7%
COc1cc(NC2CCCN(c3ncccc3C#N)C2)cc(OC)c1 (stereo not drawn)	23%
COCCn1cc(NCc2cn(C)nc2-c2ccncc2)cn1	21.2%
CN(C)C(=O)CN1CCOCC2(C1)CN(c1ncc(F)cn1)CCO2 (stereo not drawn)	-10.2%
Cc1ccc(CN2CCC3(CC2)CC(NC(=O)c2ccccn2)CO3)o1 (stereo not drawn)	-2.22%
NCC(=O)N1CCCCC1c1ccc(F)cc1 (stereo not drawn)	-2.07%
NC(=O)C1CCN(C(=O)CCn2ccc3ccc(Br)cc32)CC1	-33.3%
O=C(c1c(F)cccc1F)N1CCC[C@@H]1Cn1c(=O)oc2ccccc21	-0.473%
Cc1noc(C)c1CCC(=O)N1CCOCC1CCc1cnccn1 (stereo not drawn)	14%
O=C(NCCCn1cccn1)N1CCCC1c1ccsc1 (stereo not drawn)	-9.1%
COCC(=O)NC[C@@]1(COc2cnccn2)C[C@@H](O)[C@@H](O)C1	13.8%
COc1ccc(-c2cc(C(=O)NCCn3ccnc3)n(C)n2)cc1	19.2%
CC(CN1CCOCC1)NC(=O)c1cccc2cn[nH]c12 (stereo not drawn)	-3.84%
CNC(=O)c1cc2c(nc1NCC1CC1)CCN(c1ncccn1)CC2	-20.8%

SMILES	cytotoxicity at 70.5 h
COCCOc1ccc(NC(=O)C2CC(=O)N(CC3CC3)C2)cn1 (stereo not drawn)	19.3%
CN1[C@H]2CC[C@@H]1CN(C(=O)c1sccc1S(N)(=O)=O)CC2	-4.92%
Cc1ccc(NCc2cn3c(n2)CN(Cc2ccc(C)o2)CC3)nn1	-4.46%
Cc1ccc(C(=O)O)cc1-c1cccc2c1CCNC2	-21%
O=C1[C@H]2CN(Cc3nccs3)C[C@H]2CN1c1cncnc1	-8.02%
CN(Cc1cccs1)c1cc(N2CCCC2CO)ncn1 (stereo not drawn)	-1.74%
CCOC(=O)CNC(=O)N1CCC(OC)c2ccccc2N(C)C(=O)C1 (stereo not drawn)	-6.05%
CC(C#N)CN(C)C(=O)CCNC(=O)C(C)(C)C (stereo not drawn)	0.0301%
O=C(c1ccoc1)N1CC[C@H]2[C@H]1CCN2S(=O)(=O)C1CC1	13.5%
CCn1ncc2c1C(COC)CN(S(=O)(=O)N(C)C)C2 (stereo not drawn)	-10.2%
Cn1ccnc1C(=O)N1CCOC(Cc2ccccc2Cl)C1 (stereo not drawn)	11.6%
C=C(C)CN(CC)C(=O)CN1CCCC1C(=O)N(C)C (stereo not drawn)	-4.6%
CC[C@H](C)Nc1nccc(-c2cnc3sc(C)c(C)n3c2=O)n1	23.3%
Cc1csc(CNC(=O)NC2CCN(c3ncccn3)CC2)n1	-11.3%
COc1ccc(COCC(O)CNC(=O)c2ccc(C#N)cc2)cc1 (stereo not drawn)	-5.39%
Cc1cccc(COC[C@@]23CCC[C@@H]2CN(S(=O)(=O)N(C)C)C3)n1	-4.49%
Cn1c(Cn2ccnc2)nnc1C1CCN(Cc2cccnc2N)CC1	-9.06%
Cc1cc(NC(=O)CN2CCCC2c2noc(C(C)C)n2)no1 (stereo not drawn)	14.1%
CN(C)CCNC(=O)Nc1cccc(C[S+]([O-])Cc2ccccc2)c1 (stereo not drawn)	-2.04%
CSc1nccc(-c2cccc(-c3ccn(CC4COCCO4)n3)c2)n1 (stereo not drawn)	-13.8%
Cc1ccc(C(=O)N2CCC3(CC2)CC(c2cnn(C)c2)CO3)cn1 (stereo not drawn)	-10.6%
